pEC50: −log10 of the molar value.
Experiments:
Hepatitis C virus [1] = assay: Antiviral activity against HCV genotype 1a infected in human HuH7 cells by luciferase reporter gene assay; type: functional, cell-based, Hepacivirus hominis; details: subtype 1a, Huh-7
Hepatitis C virus [2] = assay: Antiviral activity against HCV genotype 1b infected in human HuH7 cells by luciferase reporter gene assay; type: functional, cell-based, Hepacivirus hominis; details: Huh-7
Hepatitis C virus [3] = assay: Antiviral activity against HCV genotype 3a infected in human HuH7 cells by luciferase reporter gene assay; type: functional, cell-based, Hepacivirus hominis; details: Huh-7
[4] = Drug level in Sprague-Dawley rat liver at 5 mg/kg, po measured 4 hrs post dose; type: ADME, organism-based; parameters: dose 5 mg/kg, route oral; details: read-out: Drug uptake
[5] = (§1) AUC(last) in Sprague-Dawley rat at 1 mg/kg, iv; type: ADME, organism-based, Plasma; parameters: time 0 - last, dose 1 mg/kg, route intravenous; details: Sprague-Dawley, plasma
[6] = Cmax in Sprague-Dawley rat at 5 mg/kg, po; type: ADME, organism-based; parameters: dose 5 mg/kg, route oral; details: in vivo
[7] = Tmax in Sprague-Dawley rat at 5 mg/kg, po; type: ADME, organism-based; parameters: dose 5 mg/kg, route oral; details: in vivo
[8] = Half life in Sprague-Dawley rat at 1 mg/kg, iv; type: ADME, organism-based; parameters: dose 1 mg/kg, route intravenous; details: in vivo
[9] = Oral bioavailability in Sprague-Dawley rat at 5 mg/kg; type: ADME, organism-based; details: in vivo
[10] = Volume of distribution at steady state in Sprague-Dawley rat at 1 mg/kg, iv; type: ADME, organism-based; parameters: dose 1 mg/kg, route intravenous; details: in vivo, read-out: Vdss
[11] = AUC(last) in Sprague-Dawley rat at 5 mg/kg, po; type: ADME, organism-based; parameters: dose 5 mg/kg, route oral, time 0 - last; details: plasma
[12] = (§2) Clearance in Sprague-Dawley rat at 1 mg/kg, iv; type: ADME, organism-based; parameters: dose 1 mg/kg, route intravenous; details: Sprague-Dawley, in vivo
[13] = Plasma concentration in Sprague-Dawley rat at 5 mg/kg, po measured 4 hrs post dose; type: ADME, organism-based; parameters: dose 5 mg/kg, route oral
Rattus norvegicus [14] = assay: as §1; type: ADME, organism-based, Plasma; parameters: time 0 - last, dose 1 mg/kg, route intravenous; details: in vivo
Rattus norvegicus [15] = assay: as §2; type: ADME, organism-based; parameters: dose 1 mg/kg, route intravenous; details: in vivo
Hepatitis C virus [16] = assay: Antiviral activity against HCV genotype 4a infected in human HuH7 cells by luciferase reporter gene assay; type: functional, cell-based, Hepacivirus hominis; details: Huh-7
Hepatitis C virus [17] = assay: Antiviral activity against HCV genotype 5a infected in human HuH7 cells by luciferase reporter gene assay; type: functional, cell-based, Hepacivirus hominis; details: Huh-7
Hepatitis C virus [18] = assay: Antiviral activity against HCV genotype 6a infected in human HuH7 cells by luciferase reporter gene assay; type: functional, cell-based, Hepacivirus hominis; details: Huh-7

Row | SMILES | pEC50 (Hepatitis C virus [1]) | pEC50 (Hepatitis C virus [2]) | further results
1 | COC(=O)N[C@H](C(=O)N1CCC[C@H]1c1ncc(-c2ccc3c(c2)Cc2cc(-c4cnc([C@@H]5CCCN5C(=O)[C@@H](NC(=O)OC)C(C)C)[nH]4)ccc2-3)[nH]1)C(C)C | 9.60 | 10.38 | pEC50 (Hepatitis C virus [3]): 8.42
2 | COC(=O)N[C@H](C(=O)N1CCC[C@H]1c1ncc(-c2ccc3c(c2)C(=O)c2cc(-c4cnc([C@@H]5CCCN5C(=O)[C@@H](NC(=O)OC)C(C)C)[nH]4)ccc2-3)[nH]1)C(C)C | 9.35 | 10.35 | 
3 | COC(=O)N[C@H](C(=O)N1CCC[C@H]1c1ncc(-c2ccc3c(c2)C(C)(C)c2cc(-c4cnc([C@@H]5CCCN5C(=O)[C@@H](NC(=O)OC)C(C)C)[nH]4)ccc2-3)[nH]1)C(C)C | 8.94 | 10.43 | 
4 | COC(=O)N[C@H](C(=O)N1CCC[C@H]1c1ncc(-c2ccc3c(c2)Oc2ccc(-c4cnc([C@@H]5CCCN5C(=O)[C@@H](NC(=O)OC)C(C)C)[nH]4)cc2C(=O)N3)[nH]1)C(C)C | < 7.00 | < 8.43 | 
5 | COC(=O)N[C@H](C(=O)N1CCC[C@H]1c1ncc(-c2ccc3c(c2)CCc2ccc(-c4cnc([C@@H]5CCCN5C(=O)[C@@H](NC(=O)OC)C(C)C)[nH]4)cc2O3)[nH]1)C(C)C | 8.13 | 10.26 | 
6 | COC(=O)N[C@H](C(=O)N1CCC[C@H]1c1ncc(-c2ccc3c(c2)CCc2cc(-c4cnc([C@@H]5CCCN5C(=O)[C@@H](NC(=O)OC)C(C)C)[nH]4)ccc2O3)[nH]1)C(C)C | 8.32 | 10.16 | 
7 | COC(=O)N[C@H](C(=O)N1CCC[C@H]1c1ncc(-c2ccc3c(c2)Cc2ccc(-c4cnc([C@@H]5CCCN5C(=O)[C@@H](NC(=O)OC)C(C)C)[nH]4)cc2O3)[nH]1)C(C)C | 10.01 | 10.89 | concentration at 4 h [4]: 462 ng/mL; AUC(0-t) [5]: 1060 ng·h/mL; Cmax [6]: 380 ng/mL; Tmax [7]: 3.33 h; half-life [8]: 1.33 h; bioavailability [9]: 41.1%; Vd [10]: 1.32 L/kg; AUC(0-t) [11]: 2090 ng·h/mL; clearance [12]: 15.8 mL/min/kg; concentration at 4 h [13]: 371 ng/mL
8 | COC(=O)N[C@H](C(=O)N1CCC[C@H]1c1ncc(-c2ccc3c(c2)Cc2cc(-c4cnc([C@@H]5CCCN5C(=O)[C@@H](NC(=O)OC)C(C)C)[nH]4)ccc2O3)[nH]1)C(C)C | < 7.00 | < 8.43 | 
9 | COC(=O)N[C@H](C(=O)N1CCC[C@H]1c1ncc(-c2ccc3c(c2)oc2ccc(-c4cnc([C@@H]5CCCN5C(=O)[C@@H](NC(=O)OC)C(C)C)[nH]4)cc23)[nH]1)C(C)C | 8.74 | 10.48 | 
10 | COC(=O)N[C@H](C(=O)N1CCC[C@H]1c1ncc(-c2ccc3c(c2)oc2cc(-c4cnc([C@@H]5CCCN5C(=O)[C@@H](NC(=O)OC)C(C)C)[nH]4)ccc23)[nH]1)C(C)C | 9.40 | 10.39 | pEC50 (Hepatitis C virus [3]): 8.89
11 | COC(=O)N[C@H](C(=O)N1CCC[C@H]1c1ncc(-c2ccc3oc4ccc(-c5cnc([C@@H]6CCCN6C(=O)[C@@H](NC(=O)OC)C(C)C)[nH]5)cc4c3c2)[nH]1)C(C)C | 8.05 | 9.77 | 
12 | COC(=O)N[C@H](C(=O)N1CCC[C@H]1c1ncc(-c2ccc3c(c2)-c2ccc(-c4cnc([C@@H]5CCCN5C(=O)[C@@H](NC(=O)OC)C(C)C)[nH]4)cc2-3)[nH]1)C(C)C | 8.52 | 9.26 | 
13 | COC(=O)N[C@H](C(=O)N1CCC[C@H]1c1ncc(-c2ccc3c(c2)S(=O)(=O)c2cc(-c4cnc([C@@H]5CCCN5C(=O)[C@@H](NC(=O)OC)C(C)C)[nH]4)ccc2-3)[nH]1)C(C)C | 8.70 | 9.89 | 
14 | COC(=O)N[C@H](C(=O)N1CCC[C@H]1c1ncc(-c2ccc3c(c2)[nH]c2cc(-c4cnc([C@@H]5CCCN5C(=O)[C@@H](NC(=O)OC)C(C)C)[nH]4)ccc23)[nH]1)C(C)C | 7.78 | 9.74 | 
15 | COC(=O)N[C@H](C(=O)N1CCC[C@H]1c1ncc(-c2ccc3c4ccc(-c5cnc([C@@H]6CCCN6C(=O)[C@@H](NC(=O)OC)C(C)C)[nH]5)cc4n(C)c3c2)[nH]1)C(C)C | 8.11 | 9.77 | 
16 | COC(=O)N[C@H](C(=O)N1CCC[C@H]1c1ncc(-c2ccc3c(c2)Oc2ccc(-c4cnc([C@@H]5CCCN5C(=O)[C@@H](NC(=O)OC)C(C)C)[nH]4)cc2O3)[nH]1)C(C)C | 10.36 | 10.64 | concentration at 4 h [4]: 973 ng/mL; AUC(0-t) [5]: 2570 ng·h/mL; Cmax [6]: 339 ng/mL; Tmax [7]: 1.33 h; half-life [8]: 2.53 h; bioavailability [9]: 20.1%; pEC50 (Hepatitis C virus [3]): 10.22; Vd [10]: 1.18 L/kg; AUC(0-t) [11]: 1470 ng·h/mL; clearance [12]: 11.2 mL/min/kg; concentration at 4 h [13]: 199 ng/mL
17 | COC(=O)N[C@H](C(=O)N1CCC[C@H]1c1ncc(-c2ccc3c(=O)c4cc(-c5cnc([C@@H]6CCCN6C(=O)[C@@H](NC(=O)OC)C(C)C)[nH]5)ccc4oc3c2)[nH]1)C(C)C | 9.76 | 10.55 | concentration at 4 h [4]: 25 ng/mL; AUClast (Rattus norvegicus [14]): 626 ng·h/mL; Cmax [6]: 96.5 ng/mL; Tmax [7]: 0.5 h; half-life [8]: 0.92 h; bioavailability [9]: 6.7%; pEC50 (Hepatitis C virus [3]): 8.85; Vd [10]: 3.57 L/kg; AUC(0-t) [11]: 197 ng·h/mL; CL (Rattus norvegicus [15]): 55 mL/min/kg; concentration at 4 h [13]: 14 ng/mL
18 | COC(=O)N[C@H](C(=O)N1CCC[C@H]1c1ncc(-c2ccc3oc4cc(-c5cnc([C@@H]6CCCN6C(=O)[C@@H](NC(=O)OC)C(C)C)[nH]5)c(F)cc4c(=O)c3c2)[nH]1)C(C)C | 9.22 | 10.52 | 
19 | COC(=O)N[C@H](C(=O)N1CCC[C@H]1c1ncc(-c2ccc3oc4cc(-c5cnc([C@@H]6CCCN6C(=O)[C@@H](NC(=O)OC)C(C)C)[nH]5)c(Cl)cc4c(=O)c3c2)[nH]1)C(C)C | 8.60 | 10.54 | 
20 | COC(=O)N[C@H](C(=O)N1CCC[C@H]1c1ncc(-c2ccc3oc4cc(-c5cnc([C@@H]6CCCN6C(=O)[C@@H](NC(=O)OC)C(C)C)[nH]5)c(C)cc4c(=O)c3c2)[nH]1)C(C)C | 8.47 | 10.26 | 
21 | COC(=O)N[C@H](C(=O)N1CCC[C@H]1c1ncc(-c2ccc3c(c2)Oc2ccc(-c4cnc([C@@H]5CCCN5C(=O)[C@@H](NC(=O)OC)C(C)C)[nH]4)cc2C32CC2)[nH]1)C(C)C | 10.19 | 10.70 | 
22 | COC(=O)N[C@H](C(=O)N1CCC[C@H]1c1ncc(-c2ccc3c(c2)c(=O)c2ccc(-c4cnc([C@@H]5CCCN5C(=O)[C@@H](NC(=O)OC)C(C)C)[nH]4)cc2n3C)[nH]1)C(C)C | 7.95 | 10.55 | 
23 | COC(=O)N[C@H](C(=O)N1CCC[C@H]1c1ncc(-c2ccc3nc4cc(-c5cnc([C@@H]6CCCN6C(=O)[C@@H](NC(=O)OC)C(C)C)[nH]5)ccc4nc3c2)[nH]1)C(C)C | 10.06 | 10.43 | 
24 | COC(=O)N[C@H](C(=O)N1CCC[C@H]1c1ncc(-c2ccc(-c3ccc(-c4cnc([C@@H]5CCCN5C(=O)[C@@H](NC(=O)OC)C(C)C)[nH]4)cc3)cc2)[nH]1)C(C)C [DACLATASVIR] | 9.85 | 10.14 | pEC50 (Hepatitis C virus [16]): 10.39; pEC50 (Hepatitis C virus [3]): 9.17; pEC50 (Hepatitis C virus [17]): 10.29; pEC50 (Hepatitis C virus [18]): 9.35
